The values that follow come from US20200369674A1, “ANTI-PAIN COMPOUND AND PREPARATION METHOD THEREOF” (LUNAN PHARMACEUTICAL GROUP CORPORATION, priority 2017, published 2020).

What all share (type): in vivo
Experiment [1] has as its system ICR mice. The experiment in a line: Xylene-induced mouse ear swelling test (Effect Example 4). More on the design: key to Inhibition rate (%): Symbol “—” indicates that the data obtained at this dose was not significantly different from the vehicle control group. As to conditions: 50 uL xylene two hours after administration; for inhibition in vivo at 3 mg/kg / inhibition in vivo at 4 µmol/kg: Mus musculus, po, 2 h, read-out: Inhibition rate (%); for inhibition in vivo at 3 mg/kg: 3 mg/kg intragastric. On the procedure: (§1) ICR mice, 18-22 g, half of them being male and the other half being female, provided by the Department of Laboratory Animals, Peking University (License No.: SCXK (Beijing) 2016-0010).
ICR mice were randomly grouped, 8 mice per group, half of them being male and the other half being female. Vehicle control group (double-distilled water) and groups for samples to be tested (the compounds and doses thereof were shown in Table 4). All drugs were dissolved in double-distilled water immediately before administration, and given by intragastric administration at predetermined doses. Two hours after administration, 50 uL of xylene was smeared evenly on the inner and outer sides of right ear of mouse. After 30 minutes, the left and right ears of mouse were cut, and circular ear pieces of the same size were punched at the same position on the left and right ears, and weighed. The ear swelling inhibition rate of compound in mice was calculated according to the formula.
Inhibition rate %=(degree of ear swelling in vehicle control group−degree of ear swelling in test group)/degree of ear swelling in vehicle control group×100

Experiment [2] concerns ICR mice. The experiment in a line: Formalin experiment. As to conditions: Mus musculus, po, 2 h, 2.5% formalin two hours after administration, phase II 10-60 minutes, read-out: Phase II pain inhibition rate (%); for inhibition in vivo at 9 mg/kg: 9 mg/kg intragastric; for inhibition in vivo at 4 µmol/kg: 4 μmol/kg intragastric; for inhibition in vivo at 1 mg/kg: 1 mg/kg intragastric. On the procedure: as §1
ICR mice, half of them being male and the other half being female, were randomly grouped, 8 mice per group. Vehicle control group (double-distilled water) and groups for samples to be tested were set, in which the compounds and doses thereof were shown in Table 3. All drugs were dissolved in double-distilled water before administration, and given by intragastric administration at predetermined doses. Two hours after administration, the mice were injected with 20 ul of 2.5% formalin solution in the right hind foot, and the time (s) of licking or biting foot was recorded as an index of pain response, in which 0-5 minutes was phase I, 10-60 minutes was phase II, and the total observation time was 60 minutes. The phase II pain inhibition rate of compound in mice was calculated according to the following formula:
Inhibition rate %=(time of licking or biting foot in vehicle control group−time of licking or biting foot in test group)/time of licking or biting foot in vehicle control group×100

Experiment [3] has as its system ICR mice. The experiment in a line: Hot plate test. The settings on record: Mus musculus, po, latency 2.0 hours after administration, hot plate 55° C., read-out: PTE %; for change in vivo at 3 mg/kg: 3 mg/kg intragastric; for change in vivo at 4 µmol/kg: 4 μmol/kg intragastric; for change in vivo at 1 mg/kg: 1 mg/kg intragastric. On the procedure: as §1
The temperature of hot plate was adjusted to 55° C., and the responses of mouse such as licking hind feet and jumping were used as the observation indexes. The time from the placement of mice on copper plate to the appearance of the above responses was defined as latency time. The latency time was measured for three times 30 minutes before administration, and the average value thereof was used as basic threshold, or baseline latency (BL). The animals with a latency time greater than 15 s and less than 5 s were removed, and the residual mice were randomly grouped, 8 animals per group.
Vehicle control group (double-distilled water) and groups for samples to be tested (the compounds and doses thereof were shown in Table 1) were set. All drugs were dissolved in […] before administration, and given by intragastric administration. The latency time was measured 2.0 hours after administration. Percentage of Pain Threshold Elevated Rate (PTE %) of compound on mice was calculated according to the following formula:
PTE %=(latency time of test group−latency time of vehicle control group)/latency time of vehicle control group×100
A general note: In hot-plate and tail-flick tests a longer latency is read as antinociception.

In experiment [4] the test system is ICR mice. Description: Acetic acid writhing test. More on the design: key to Inhibition rate (%): Symbol “—” indicates that the data obtained at this dose was not significantly different from the vehicle control group. As to conditions: 0.6% acetic acid ip two hours after administration; for inhibition in vivo at 3 mg/kg / inhibition in vivo at 4 µmol/kg: Mus musculus, 2 h, read-out: Inhibition rate (%); for inhibition in vivo at 3 mg/kg: po, 3 mg/kg intragastric. On the procedure:
as §1
ICR mice, half of them being male and the other half being female, were randomly grouped, 8 mice per group. Vehicle control group (double-distilled water), ibuprofen control group, and groups for samples to be tested (the compounds and doses thereof were shown in Table 2) were set. All drugs were dissolved in double-distilled water before administration, and given by intragastric administration at predetermined doses. Two hours after the administration, the mice were intraperitoneally injected with 0.6% acetic acid solution (10 ml/kg, ip), and the number of times the mice writhed (abdomen depressed, buttock raised, body elongated) was recorded within 5-20 minutes. The inhibition rate % of compound on writhing pain in mice was calculated according to the following formula.
Inhibition rate %=(number of writhing times in vehicle control group−number of writhing times in test group)/number of writhing times in vehicle control group×100

Turning to `Clc1cccc(N2CC[N+]3(CCCC3)CC2)c1` [DXL-A-05, 8-(3-chlorophenyl)-5,8-diazaspiro[4.5]decan-5-ium bromide], the inhibition in vivo at 3 mg/kg in the experiment with ICR mice [1] came to 30.8%; in the experiment on ICR mice [4], 22.5%. For the same molecule, the inhibition in vivo at 9 mg/kg with ICR mice [2] is 32.9%. Moreover, in the experiment with ICR mice [3], the change in vivo at 3 mg/kg came to 19.5%.
The matching figures for `FC(F)(F)c1cccc(N2CC[N+]3(CCCC3)CC2)c1` [DXL-A-06, 8-(3-(trifluoromethyl)phenyl)-5,8-diazaspiro[4.5]decan-5-ium bromide]: 45.9%, 14%, 17.6% and 16.7%.
Turning to `O=[N+]([O-])c1cc(N2CC[N+]3(CCCC3)CC2)cc(C(F)(F)F)c1` [DXL-A-28, 8-(3-nitro-5-(trifluoromethyl)phenyI)-5,8-diazaspiro[4.5]decan-5-ium bromide], the inhibition in vivo at 4 µmol/kg in the experiment with ICR mice [1] (4 μmol/kg intragastric) is 9.27%; in the experiment on ICR mice [2], 13.3%. In the experiment with ICR mice [3], the change in vivo at 4 µmol/kg worked out at 36%. For the same molecule, the “Inhibition rate (%)” value in the experiment with ICR mice [4] (4 μmol/kg intragastric) is “—”.
As to `Br.Fc1ccc(N2CC[N+]3(CCCC3)CC2)cc1` [DXL-A-16, 8-(4-fluorophenyl)-5,8-diazaspiro[4.5]decan-5-ium bromide], the “Inhibition rate (%)” value with ICR mice [1] (1 mg/kg intragastric) and in the experiment on ICR mice [4] (1 mg/kg intragastric) was “—” throughout. Also, in the experiment with ICR mice [2], the inhibition in vivo at 1 mg/kg came to 31.4%. Further, in the experiment with ICR mice [3], the change in vivo at 1 mg/kg turned out to be 31.4%.
Regarding `FC(F)(F)c1cc(N2CC[N+]3(CCCC3)CC2)cc(C(F)(F)F)c1` [DXL-A-27, 8-(3,5-bis(trifluoromethyl)phenyI)-5,8-diazaspiro[4.5]decan-5-ium bromide], the inhibition in vivo at 4 µmol/kg with ICR mice [1] (4 μmol/kg intragastric) was determined as 4.13%; in the experiment with ICR mice [2], 20.1%. The change in vivo at 4 µmol/kg in the experiment on ICR mice [3] is 49%. Moreover, the “Inhibition rate (%)” value in the experiment with ICR mice [4] (4 μmol/kg intragastric) is reported as “—”.
Regarding `Cc1cccc(N2CC[N+]3(CCCC3)CC2)c1` [DXL-A-10, 8-(m-tolyl)-5,8-diazaspiro[4.5]decan-5-ium bromide], the inhibition in vivo at 3 mg/kg was found to be 27.4% with ICR mice [1] and 29.8% in the experiment on ICR mice [4]. Further, the inhibition in vivo at 9 mg/kg with ICR mice [2] was found to be 46.9%. Besides, in the experiment on ICR mice [3], the change in vivo at 3 mg/kg worked out at 11.2%.
For the molecule `N#Cc1ccc(N2CC[N+]3(CCCC3)CC2)cc1[N+](=O)[O-].[Br-]` [DXL-A-32, 8-(4-cyano-3-nitrophenyl)-5,8-diazaspiro[4.5]decan-5-ium bromide], the inhibition in vivo at 4 µmol/kg in the experiment with ICR mice [1] (4 μmol/kg intragastric) came out at 20.4%; with ICR mice [2] it was 2.64%. The change in vivo at 4 µmol/kg in the experiment on ICR mice [3] is 38%. Moreover, the “Inhibition rate (%)” value in the experiment with ICR mice [4] (4 μmol/kg intragastric) is “—”.
For the molecule `Cc1cc(N2CC[N+]3(CCCC3)CC2)cc([N+](=O)[O-])c1` [DXL-A-29, 8-(3-methyl-5-nitrophenyl)-5,8-diazaspiro[4.5]decan-5-ium bromide], the inhibition in vivo at 4 µmol/kg stood at 63.3% with ICR mice [1] (4 μmol/kg intragastric), 17.3% with ICR mice [2] and 76% with ICR mice [4] (4 μmol/kg intragastric). Moreover, in the experiment with ICR mice [3], the change in vivo at 4 µmol/kg stood at 36%.
For the molecule `Cc1ccc(N2CC[N+]3(CCCC3)CC2)cc1[N+](=O)[O-].[Br-]` [DXL-A-30, 8-(4-methyl-3-nitrophenyl)-5,8-diazaspiro[4.5]decan-5-ium bromide], the “Inhibition rate (%)” value in the experiment on ICR mice [1] (4 μmol/kg intragastric) was “—”. The inhibition in vivo at 4 µmol/kg in the experiment with ICR mice [2] was 16.9%; with ICR mice [4] (4 μmol/kg intragastric), 41.8%. Besides, in the experiment on ICR mice [3], the change in vivo at 4 µmol/kg turned out to be 21%.
As to `Br.N#Cc1ccc(N2CC[N+]3(CCCC3)CC2)cc1` [DXL-A-19, 8-(4-cyanophenyl)-5,8-diazaspiro[4.5]decan-5-ium bromide], the “Inhibition rate (%)” value in the experiment with ICR mice [1] (1 mg/kg intragastric) and with ICR mice [4] (1 mg/kg intragastric) was “—” in each case. For the same molecule, in the experiment on ICR mice [2], the inhibition in vivo at 1 mg/kg stood at 34.3%. The change in vivo at 1 mg/kg in the experiment with ICR mice [3] came to 34.3%.
